{"source": "patent US11021469B2", "about": "“Indoline sulfonamide inhibitors of DapE and NDM-1 and use of the same” (priority 2014, dated 2021)"}
{"molecular_target": "NDM-1 (Klebsiella pneumoniae, UniProt C7C422)", "sequence (C7C422 36-270 limits assumed)": "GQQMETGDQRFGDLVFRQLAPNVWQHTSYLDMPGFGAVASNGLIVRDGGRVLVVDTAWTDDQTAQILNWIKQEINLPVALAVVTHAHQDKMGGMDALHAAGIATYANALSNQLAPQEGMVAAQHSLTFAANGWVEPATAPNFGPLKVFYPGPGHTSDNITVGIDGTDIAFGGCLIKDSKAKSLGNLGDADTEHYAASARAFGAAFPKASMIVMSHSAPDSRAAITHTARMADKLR", "assay": "Inhibition of NDM-1 assay (CHROMACEF hydrolysis)", "type": "biochemical", "conditions": "pH 7, read-out: % NMD-1 Inhibition (5 μM)", "experimental": "The ability of the compounds described herein to inhibit NDM-1 was determined in the following way.\nA Substrate Working Solution was prepared from CRHROMACEF (6 μM) and Tween-20 (0.02% v/v) in water. An Enzyme Working Solution was prepared with NDM-1 (0.5 μg/mL), Hepes (0.1 M), pH 7 and Tween-20 (0.02% v/v). An Inhibitor Working Solution was prepared from 50 mM of the inhibitor in DMSO. The final assay conditions were 1 mL, Hepes (50 mM), pH 7, Tween-20 (0.02% v/v), CHROMACEF (3 uM), Δ35 NDM-1 (0.25 μg/mL). Extra zinc was omitted from these assays because extra ZnSO4 interferes with the metal binding groups in inhibitors.\nAn aliquot of the Inhibitor Working Solution was added to a polystyrene disposable cuvette to achieve a final concentration of 0-50 μM (in 1 mL final). Supplemental DMSO was added to reach a final volume of 4 μL. NDM-1 Working Solution (0.05 mL) was added to the cuvette and the inhibitor and enzyme were allowed to incubate for about 20 minutes. The reaction was initiated by added 0.5 mL Substrate Working Solution. The solution was mixed quickly, but gently to avoid bubble formation. CHROMACEF […] was recorded to start the reaction. The reaction was mixed fast, but gently. The change in absorbance ΔAbs442nm/min was measured for each inhibitor from the linear slope from each inhibitor concentration.", "units": {"inhibition at 5 µM": "%"}}
{"smiles": "CC(=O)N1CCc2cc(Br)cc(S(=O)(=O)NCCC(C)C)c21", "inhibition at 5 µM": 62.7}
{"smiles": "CCNS(=O)(=O)c1cc(Br)cc2c1N(C(C)=O)CC2", "inhibition at 5 µM": 16.8}
{"smiles": "CC(=O)N1CCc2cc(Br)cc(S(=O)(=O)NCc3ccccc3)c21", "inhibition at 5 µM": 27.3}
